The kinase profiling compilation of Christmann-Franck et al. (2016)
Blank lines part the entries; values can stand above or below the molecule they belong to.

Columns and labels:
Assay in all cases: KINOMEscan competition binding
Conditions in all cases: compound 10.0 µM
[1] = molecular target: CSNK1G2 (human) (UniProt P78368)
[2] = system: EGFR (human), P00533 [P753S; 747-752 del]
[3] = molecular target: BMPR2 (human) (UniProt Q13873)
[4] = molecular target: TYK2 JH1 catalytic (human) (UniProt P29597)
[5] = molecular target: CDK14 (human) (UniProt O94921)
[6] = molecular target: SRMS (human) (UniProt Q9H3Y6)
[7] = molecular target: CAMK2A (human) (UniProt Q9UQM7)
[8] = molecular target: CDK3 (human) (UniProt Q00526)
[9] = molecular target: MAPK12 (human) (UniProt P53778)
[10] = system: ABL1 (human), P00519 [E255K]
[11] = molecular target: STK35 (human) (UniProt Q8TDR2)
[12] = molecular target: RPS6KA1 KD1 (human) (UniProt Q15418)
[13] = molecular target: JAK1 JH1 catalytic (human) (UniProt P23458)
[14] = molecular target: RET (human) (UniProt P07949)
[15] = molecular target: TNNI3K (human) (UniProt Q59H18)
[16] = molecular target: EPHA5 (human) (UniProt P54756)
[17] = molecular target: CDC42BPB (human) (UniProt Q9Y5S2)
[18] = molecular target: TESK1 (human) (UniProt Q15569)
[19] = molecular target: EPHB1 (human) (UniProt P54762)
[20] = molecular target: MAP3K10 (human) (UniProt Q02779)
[21] = molecular target: SIK2 (human) (UniProt Q9H0K1)
[22] = molecular target: ABL2 (human) (UniProt P42684)
[23] = molecular target: TEK (human) (UniProt Q02763)
[24] = molecular target: INSR (human) (UniProt P06213)
[25] = molecular target: PRKCQ (human) (UniProt Q04759)
[26] = molecular target: PRKG1 (human) (UniProt Q13976)
[27] = molecular target: NTRK3 (human) (UniProt Q16288)
[28] = molecular target: AURKA (human) (UniProt O14965)
[29] = molecular target: SYK (human) (UniProt P43405)
[30] = molecular target: IKBKB (human) (UniProt O14920)
[31] = molecular target: GSK3B (human) (UniProt P49841)
[32] = system: ABL1 (human), P00519 [F317I]
[33] = molecular target: MAPK14 (human) (UniProt Q16539)
[34] = molecular target: MAP3K9 (human) (UniProt P80192)
[35] = molecular target: MAP3K4 (human) (UniProt Q9Y6R4)
[36] = molecular target: MAPK10 (human) (UniProt P53779)
[37] = molecular target: FGR (human) (UniProt P09769)
[38] = molecular target: SIK1 (human) (UniProt P57059)
[39] = molecular target: PKMYT1 (human) (UniProt Q99640)
[40] = molecular target: SLK (human) (UniProt Q9H2G2)
[41] = molecular target: LATS1 (human) (UniProt O95835)
[42] = molecular target: MAPK1 (human) (UniProt P28482)
Chain of MAPK1 (human) (P28482 whole entry, looked up): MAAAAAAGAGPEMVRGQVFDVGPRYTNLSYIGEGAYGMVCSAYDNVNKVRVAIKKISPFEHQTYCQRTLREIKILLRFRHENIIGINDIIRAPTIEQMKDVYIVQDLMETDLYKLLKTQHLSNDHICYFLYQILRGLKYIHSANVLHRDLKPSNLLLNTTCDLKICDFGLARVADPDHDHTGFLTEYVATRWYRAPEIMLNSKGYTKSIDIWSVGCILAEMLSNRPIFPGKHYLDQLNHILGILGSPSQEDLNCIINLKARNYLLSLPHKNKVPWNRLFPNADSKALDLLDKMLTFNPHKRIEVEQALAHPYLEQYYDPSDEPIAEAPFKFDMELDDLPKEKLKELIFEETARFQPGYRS

Chain of RPS6KA1 KD1 (human) (Q15418 whole entry, looked up): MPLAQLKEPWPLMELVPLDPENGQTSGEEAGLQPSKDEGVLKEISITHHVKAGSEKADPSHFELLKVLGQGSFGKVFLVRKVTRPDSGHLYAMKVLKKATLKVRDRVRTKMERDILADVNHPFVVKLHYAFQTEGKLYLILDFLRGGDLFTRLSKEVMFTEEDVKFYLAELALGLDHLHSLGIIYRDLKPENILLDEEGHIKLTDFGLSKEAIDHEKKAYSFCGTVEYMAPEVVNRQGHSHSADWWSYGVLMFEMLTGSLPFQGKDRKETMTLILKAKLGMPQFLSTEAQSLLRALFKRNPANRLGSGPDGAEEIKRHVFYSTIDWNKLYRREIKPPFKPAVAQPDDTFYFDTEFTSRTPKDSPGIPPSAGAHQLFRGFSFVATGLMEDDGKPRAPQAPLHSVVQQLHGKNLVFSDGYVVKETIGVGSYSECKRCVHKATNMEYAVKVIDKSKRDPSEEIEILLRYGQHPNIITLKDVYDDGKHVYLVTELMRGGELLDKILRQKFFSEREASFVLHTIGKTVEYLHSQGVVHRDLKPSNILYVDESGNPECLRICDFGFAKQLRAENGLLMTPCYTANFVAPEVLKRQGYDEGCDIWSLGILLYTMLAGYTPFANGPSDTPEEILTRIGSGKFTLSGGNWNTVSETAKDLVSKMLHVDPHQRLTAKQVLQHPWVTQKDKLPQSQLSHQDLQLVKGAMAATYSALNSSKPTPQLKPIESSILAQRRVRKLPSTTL
Chain of SIK2 (human) (Q9H0K1 whole entry, looked up): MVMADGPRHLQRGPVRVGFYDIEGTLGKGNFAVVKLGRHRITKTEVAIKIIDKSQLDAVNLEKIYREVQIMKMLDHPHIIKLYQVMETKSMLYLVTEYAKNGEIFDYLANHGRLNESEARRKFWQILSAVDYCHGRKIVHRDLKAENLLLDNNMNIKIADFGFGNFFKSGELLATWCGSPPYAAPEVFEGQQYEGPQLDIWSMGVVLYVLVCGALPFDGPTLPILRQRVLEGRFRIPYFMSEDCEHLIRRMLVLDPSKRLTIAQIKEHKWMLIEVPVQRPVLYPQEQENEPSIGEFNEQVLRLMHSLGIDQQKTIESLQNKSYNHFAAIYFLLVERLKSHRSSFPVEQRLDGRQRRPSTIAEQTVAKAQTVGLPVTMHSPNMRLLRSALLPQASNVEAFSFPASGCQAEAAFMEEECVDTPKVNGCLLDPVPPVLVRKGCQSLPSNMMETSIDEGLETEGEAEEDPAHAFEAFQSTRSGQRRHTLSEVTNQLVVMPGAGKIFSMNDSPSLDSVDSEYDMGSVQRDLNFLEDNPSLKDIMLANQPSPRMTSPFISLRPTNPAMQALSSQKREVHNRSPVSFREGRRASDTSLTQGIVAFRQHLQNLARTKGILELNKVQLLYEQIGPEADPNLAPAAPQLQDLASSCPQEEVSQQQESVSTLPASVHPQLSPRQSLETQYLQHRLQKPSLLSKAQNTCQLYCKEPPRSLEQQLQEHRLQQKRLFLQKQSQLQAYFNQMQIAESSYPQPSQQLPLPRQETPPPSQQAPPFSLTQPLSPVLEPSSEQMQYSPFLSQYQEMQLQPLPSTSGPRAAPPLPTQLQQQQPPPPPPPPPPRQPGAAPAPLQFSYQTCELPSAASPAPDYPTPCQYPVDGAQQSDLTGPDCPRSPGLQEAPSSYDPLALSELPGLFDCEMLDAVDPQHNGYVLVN
Chain of STK35 (human) (Q8TDR2 whole entry, looked up): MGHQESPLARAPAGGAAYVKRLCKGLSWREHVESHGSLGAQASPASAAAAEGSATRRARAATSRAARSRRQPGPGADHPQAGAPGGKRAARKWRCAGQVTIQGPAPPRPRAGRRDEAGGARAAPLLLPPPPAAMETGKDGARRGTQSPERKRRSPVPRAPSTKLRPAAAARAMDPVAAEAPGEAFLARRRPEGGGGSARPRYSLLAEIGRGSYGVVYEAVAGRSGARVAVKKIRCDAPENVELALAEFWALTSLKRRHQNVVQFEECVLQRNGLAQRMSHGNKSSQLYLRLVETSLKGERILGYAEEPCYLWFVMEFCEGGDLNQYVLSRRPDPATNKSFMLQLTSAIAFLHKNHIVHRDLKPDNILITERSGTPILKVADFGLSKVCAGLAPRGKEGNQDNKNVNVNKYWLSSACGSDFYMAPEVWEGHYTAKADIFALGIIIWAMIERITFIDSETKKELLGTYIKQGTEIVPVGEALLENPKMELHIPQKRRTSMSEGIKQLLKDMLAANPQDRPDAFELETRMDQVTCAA
Chain of CDK14 (human) (O94921 whole entry, looked up): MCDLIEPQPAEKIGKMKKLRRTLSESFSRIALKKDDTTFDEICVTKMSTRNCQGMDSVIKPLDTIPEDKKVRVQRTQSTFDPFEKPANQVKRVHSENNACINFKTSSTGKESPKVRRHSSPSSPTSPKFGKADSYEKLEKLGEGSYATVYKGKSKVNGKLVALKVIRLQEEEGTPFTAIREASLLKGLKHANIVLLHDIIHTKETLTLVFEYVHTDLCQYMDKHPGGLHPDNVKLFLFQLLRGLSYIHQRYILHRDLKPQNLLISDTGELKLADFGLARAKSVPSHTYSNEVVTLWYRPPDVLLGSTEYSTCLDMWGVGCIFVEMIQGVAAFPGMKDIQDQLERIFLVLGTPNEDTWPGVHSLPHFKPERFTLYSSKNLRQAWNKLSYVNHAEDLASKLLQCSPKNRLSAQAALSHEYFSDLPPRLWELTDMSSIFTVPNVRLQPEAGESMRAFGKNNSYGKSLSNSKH
Chain of SLK (human) (Q9H2G2 whole entry, looked up): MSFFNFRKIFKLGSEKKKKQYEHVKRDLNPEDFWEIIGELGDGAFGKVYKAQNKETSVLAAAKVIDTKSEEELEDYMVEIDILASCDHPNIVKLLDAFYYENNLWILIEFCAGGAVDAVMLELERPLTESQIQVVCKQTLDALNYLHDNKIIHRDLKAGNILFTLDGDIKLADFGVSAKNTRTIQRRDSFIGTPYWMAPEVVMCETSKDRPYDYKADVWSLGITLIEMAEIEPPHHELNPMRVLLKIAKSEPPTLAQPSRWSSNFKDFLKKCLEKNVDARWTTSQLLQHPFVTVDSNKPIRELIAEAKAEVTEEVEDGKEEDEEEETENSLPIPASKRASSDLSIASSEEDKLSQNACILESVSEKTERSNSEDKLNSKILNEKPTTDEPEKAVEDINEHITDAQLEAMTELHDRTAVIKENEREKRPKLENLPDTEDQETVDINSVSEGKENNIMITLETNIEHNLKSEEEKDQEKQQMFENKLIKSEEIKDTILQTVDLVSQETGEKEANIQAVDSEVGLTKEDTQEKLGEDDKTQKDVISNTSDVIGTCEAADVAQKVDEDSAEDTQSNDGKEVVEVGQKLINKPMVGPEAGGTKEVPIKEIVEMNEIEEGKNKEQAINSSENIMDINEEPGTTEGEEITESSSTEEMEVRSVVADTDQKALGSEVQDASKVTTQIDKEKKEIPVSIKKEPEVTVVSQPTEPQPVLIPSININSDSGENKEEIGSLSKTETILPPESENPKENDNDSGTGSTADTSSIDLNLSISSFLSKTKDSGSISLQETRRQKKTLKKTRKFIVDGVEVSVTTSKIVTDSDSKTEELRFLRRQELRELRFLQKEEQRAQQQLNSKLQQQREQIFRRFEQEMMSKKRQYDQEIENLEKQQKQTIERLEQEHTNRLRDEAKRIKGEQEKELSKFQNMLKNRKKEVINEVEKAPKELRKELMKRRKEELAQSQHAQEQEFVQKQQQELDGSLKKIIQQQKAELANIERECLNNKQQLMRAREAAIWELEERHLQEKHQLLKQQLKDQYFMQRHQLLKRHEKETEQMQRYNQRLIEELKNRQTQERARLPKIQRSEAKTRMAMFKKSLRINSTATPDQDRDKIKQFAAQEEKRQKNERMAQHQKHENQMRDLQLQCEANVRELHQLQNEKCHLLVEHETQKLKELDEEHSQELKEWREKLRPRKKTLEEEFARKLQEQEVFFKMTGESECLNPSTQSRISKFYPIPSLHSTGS
Chain of FGR (human) (P09769 whole entry, looked up): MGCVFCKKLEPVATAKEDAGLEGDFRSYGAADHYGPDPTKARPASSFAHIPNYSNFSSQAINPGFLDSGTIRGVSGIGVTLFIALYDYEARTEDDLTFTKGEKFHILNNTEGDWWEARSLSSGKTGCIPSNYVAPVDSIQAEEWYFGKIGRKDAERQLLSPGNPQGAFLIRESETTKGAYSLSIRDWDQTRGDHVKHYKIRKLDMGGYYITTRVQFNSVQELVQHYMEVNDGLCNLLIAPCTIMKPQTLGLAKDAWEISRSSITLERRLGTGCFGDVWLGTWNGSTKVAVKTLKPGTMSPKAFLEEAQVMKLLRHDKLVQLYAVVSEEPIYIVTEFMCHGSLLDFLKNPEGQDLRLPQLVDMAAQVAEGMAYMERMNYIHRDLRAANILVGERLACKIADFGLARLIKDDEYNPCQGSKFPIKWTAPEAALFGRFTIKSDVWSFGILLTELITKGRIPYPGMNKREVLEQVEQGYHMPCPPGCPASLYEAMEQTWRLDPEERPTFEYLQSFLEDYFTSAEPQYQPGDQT

Compound: Nc1cccc(-c2cc(/C=C3\SC(=O)NC3=O)c[nH]c2=O)c1
kinase still bound, per cent of control [1]: 19%
kinase still bound, per cent of control [2]: 16%
kinase still bound, per cent of control [3]: 29%
kinase still bound, per cent of control [4]: 14%

Compound: N=C1NC(=O)/C(=C/c2ccc(-c3ccc(C(N)=O)cc3O)o2)S1
kinase still bound, per cent of control [5]: 18%
kinase still bound, per cent of control [6]: 33%
kinase still bound, per cent of control [7]: 28%
kinase still bound, per cent of control [8]: 30%

Compound: CN1C(=O)c2ccccc2N(C)c2nc(Nc3ccc(N4CCC(O)CC4)cc3)ncc21
kinase still bound, per cent of control [9]: 100%
kinase still bound, per cent of control [10]: 0.6%
kinase still bound, per cent of control [11]: 96%
kinase still bound, per cent of control [12]: 66%
kinase still bound, per cent of control [13]: 30%
kinase still bound, per cent of control [14]: 15%
kinase still bound, per cent of control [15]: 100%
kinase still bound, per cent of control [16]: 100%
kinase still bound, per cent of control [17]: 100%
kinase still bound, per cent of control [18]: 97%
kinase still bound, per cent of control [19]: 100%
kinase still bound, per cent of control [20]: 100%
kinase still bound, per cent of control [21]: 61%
kinase still bound, per cent of control [22]: 33%
kinase still bound, per cent of control [23]: 72%
kinase still bound, per cent of control [24]: 80%
kinase still bound, per cent of control [25]: 92%
kinase still bound, per cent of control [1]: 80%
kinase still bound, per cent of control [26]: 100%
kinase still bound, per cent of control [2]: 100%
kinase still bound, per cent of control [27]: 82%
kinase still bound, per cent of control [28]: 2.4%
kinase still bound, per cent of control [3]: 78%
kinase still bound, per cent of control [29]: 61%
kinase still bound, per cent of control [5]: 100%
kinase still bound, per cent of control [30]: 86%
kinase still bound, per cent of control [31]: 88%
kinase still bound, per cent of control [6]: 87%
kinase still bound, per cent of control [7]: 86%
kinase still bound, per cent of control [4]: 1.9%
kinase still bound, per cent of control [32]: 28%
kinase still bound, per cent of control [33]: 100%
kinase still bound, per cent of control [34]: 91%
kinase still bound, per cent of control [35]: 100%
kinase still bound, per cent of control [36]: 100%
kinase still bound, per cent of control [37]: 6.6%
kinase still bound, per cent of control [38]: 79%
kinase still bound, per cent of control [39]: 100%
kinase still bound, per cent of control [40]: 100%
kinase still bound, per cent of control [41]: 92%
kinase still bound, per cent of control [8]: 100%
kinase still bound, per cent of control [42]: 100%

Compound: CS(=O)(=O)Nc1ccc(-c2cncc(/C=C3\SC(=N)NC3=O)c2)cc1
kinase still bound, per cent of control [11]: 30%
kinase still bound, per cent of control [21]: 24%
kinase still bound, per cent of control [1]: 0.75%
kinase still bound, per cent of control [40]: 2.8%

Compound: O=C1NC(=O)/C(=C/c2c[nH]c(=O)c(-c3ccc(N4CCNCC4)nc3)c2)S1
kinase still bound, per cent of control [9]: 60%
kinase still bound, per cent of control [10]: 94%
kinase still bound, per cent of control [11]: 79%
kinase still bound, per cent of control [12]: 71%
kinase still bound, per cent of control [13]: 24%
kinase still bound, per cent of control [14]: 70%
kinase still bound, per cent of control [15]: 96%
kinase still bound, per cent of control [16]: 100%
kinase still bound, per cent of control [17]: 100%
kinase still bound, per cent of control [18]: 100%
kinase still bound, per cent of control [19]: 95%
kinase still bound, per cent of control [20]: 100%
kinase still bound, per cent of control [21]: 76%
kinase still bound, per cent of control [22]: 78%
kinase still bound, per cent of control [23]: 100%
kinase still bound, per cent of control [24]: 54%
kinase still bound, per cent of control [25]: 44%
kinase still bound, per cent of control [1]: 3.6%
kinase still bound, per cent of control [26]: 100%
kinase still bound, per cent of control [2]: 76%
kinase still bound, per cent of control [27]: 88%
kinase still bound, per cent of control [28]: 100%
kinase still bound, per cent of control [3]: 19%
kinase still bound, per cent of control [29]: 100%
kinase still bound, per cent of control [5]: 73%
kinase still bound, per cent of control [30]: 84%
kinase still bound, per cent of control [31]: 53%
kinase still bound, per cent of control [6]: 86%
kinase still bound, per cent of control [7]: 7.8%
kinase still bound, per cent of control [4]: 2.5%
kinase still bound, per cent of control [32]: 100%
kinase still bound, per cent of control [33]: 100%
kinase still bound, per cent of control [34]: 94%
kinase still bound, per cent of control [35]: 14%
kinase still bound, per cent of control [36]: 77%
kinase still bound, per cent of control [37]: 84%
kinase still bound, per cent of control [38]: 100%
kinase still bound, per cent of control [39]: 100%
kinase still bound, per cent of control [40]: 29%
kinase still bound, per cent of control [41]: 84%
kinase still bound, per cent of control [8]: 100%
kinase still bound, per cent of control [42]: 97%

Compound: CS(=O)(=O)Nc1ccc(-c2ncc(/C=C3\SC(=N)NC3=O)s2)cc1
kinase still bound, per cent of control [14]: 20%
kinase still bound, per cent of control [1]: 14%
kinase still bound, per cent of control [37]: 26%
kinase still bound, per cent of control [40]: 1.4%

Compound: CN1C(=O)[C@H]2CCC[C@H]2N(C2CCCC2)c2nc(Nc3ccc(C(N)=O)cc3)ncc21
kinase still bound, per cent of control [12]: 11%
kinase still bound, per cent of control [28]: 7.6%
kinase still bound, per cent of control [3]: 23%
kinase still bound, per cent of control [4]: 19%
kinase still bound, per cent of control [40]: 3.4%

Compound: CSC1=NC(=O)/C(=C/c2c[nH]c(=O)c(-c3ccc(NS(C)(=O)=O)cc3)c2)S1
kinase still bound, per cent of control [30]: 25%

More lines, now with the values ahead:

kinase still bound, per cent of control [5]: 19%
kinase still bound, per cent of control [8]: 6.5%
Compound: N=C1NC(=O)/C(=C/c2ccc(-c3ccc(F)cc3O)o2)S1

kinase still bound, per cent of control [17]: 32%
kinase still bound, per cent of control [31]: 12%
kinase still bound, per cent of control [42]: 29%
Compound: N=C1NC(=O)/C(=C/c2ccc(-c3csc4ccccc34)o2)S1

kinase still bound, per cent of control [12]: 30%
kinase still bound, per cent of control [21]: 27%
kinase still bound, per cent of control [30]: 26%
kinase still bound, per cent of control [7]: 10%
kinase still bound, per cent of control [34]: 28%
kinase still bound, per cent of control [36]: 3%
Compound: N=C1NC(=O)/C(=C/c2ccc(-c3cncc4ccccc34)o2)S1

kinase still bound, per cent of control [17]: 30%
kinase still bound, per cent of control [27]: 32%
kinase still bound, per cent of control [7]: 22%
kinase still bound, per cent of control [36]: 12%
Compound: O=C1NC(=S)S/C1=C\c1ccc(-c2cncc3ccccc23)o1

kinase still bound, per cent of control [8]: 24%
Compound: N=C1NC(=O)/C(=C/c2ccc(-c3ccccc3O)o2)S1
